# Experiments:
# [1] = system: patients having prednisone-induced osteoporosis complicated by arthralgia; settings: daily administration; cited from earlier work
# [2] = system: nausea and vomiting associated with administration of the test drug; test: Working Example 2: prescriptions for nausea and vomiting associated with administration of the test drug; settings: given before test drug
# From the text: The administration period and efficacy of various drugs to treat nausea and vomiting associated with administration of the test drug were studied.
# [3] = PTH 20 μg/day; blood samples 4 to 6 hours after administration; cited from earlier work
compound,measurement,setting,value
"CC[C@H](C)[C@H](NC(=O)[C@H](CCC(=O)O)NC(=O)[C@H](CO)NC(=O)[C@@H](NC(=O)[C@@H](N)CO)C(C)C)C(=O)N[C@@H](CCC(N)=O)C(=O)N[C@@H](CC(C)C)C(=O)N[C@@H](CCSC)C(=O)N[C@@H](Cc1cnc[nH]1)C(=O)N[C@@H](CC(N)=O)C(=O)N[C@@H](CC(C)C)C(=O)NCC(=O)N[C@@H](CCCCN)C(=O)N[C@@H](Cc1cnc[nH]1)C(=O)N[C@@H](CC(C)C)C(=O)N[C@@H](CC(N)=O)C(=O)N[C@@H](CO)C(=O)N[C@@H](CCSC)C(=O)N[C@@H](CCC(=O)O)C(=O)N[C@@H](CCCN=C(N)N)C(=O)N[C@H](C(=O)N[C@@H](CCC(=O)O)C(=O)N[C@@H](Cc1c[nH]c2ccccc12)C(=O)N[C@@H](CC(C)C)C(=O)N[C@@H](CCCN=C(N)N)C(=O)N[C@@H](CCCCN)C(=O)N[C@@H](CCCCN)C(=O)N[C@@H](CC(C)C)C(=O)N[C@@H](CCC(N)=O)C(=O)N[C@@H](CC(=O)O)C(=O)N[C@H](C(=O)N[C@@H](Cc1cnc[nH]1)C(=O)N[C@@H](CC(N)=O)C(=O)N[C@@H](Cc1ccccc1)C(=O)O)C(C)C)C(C)C [Forteo, teriparatide (rDNA origin)]",Bone strengthening effect compared with Fosamax,[1],stronger bone strengthening effect than Fosamax
"O=c1[nH]c2ccccc2n1CCCN1CCC(n2c(=O)[nH]c3cc(Cl)ccc32)CC1 [Nauzelin, domperidone]",Effective or ineffective,[2]; event: nausea,Effective
same,Effective or ineffective,[2]; event: vomiting,Effective
PTH: PTH (parathyroid hormone) preparation given daily (20 μg/day) in cited osteoporosis trials,Patients with hypercalcemia,[3],11%
same,Patients with persistent hypercalcemia,[3],3%

# Source: patent US20120252729A1, “PTH-CONTAINING THERAPEUTIC/PROPHYLACTIC AGENT FOR OSTEOPOROSIS, CHARACTERIZED IN THAT PTH IS ADMINISTERED ONCE A WEEK IN A UNIT DOSE OF 100 TO 200 UNITS” (ASAHI KASEI PHARMA CORPORATION, priority 2009, published 2012)
